Source: patent US12365674B2, “Inhibitors of histone deacetylase useful for the treatment or prevention of HIV infection” (Merck Sharp & Dohme LLC, priority 2019, dated 2025)

Target: T1, human HDAC8 (Homo sapiens, UniProt Q9BY41)
T1 construct: purchased Enzo Life Sciences BML-SE145-0100
T1 sequence (Q9BY41 1-377): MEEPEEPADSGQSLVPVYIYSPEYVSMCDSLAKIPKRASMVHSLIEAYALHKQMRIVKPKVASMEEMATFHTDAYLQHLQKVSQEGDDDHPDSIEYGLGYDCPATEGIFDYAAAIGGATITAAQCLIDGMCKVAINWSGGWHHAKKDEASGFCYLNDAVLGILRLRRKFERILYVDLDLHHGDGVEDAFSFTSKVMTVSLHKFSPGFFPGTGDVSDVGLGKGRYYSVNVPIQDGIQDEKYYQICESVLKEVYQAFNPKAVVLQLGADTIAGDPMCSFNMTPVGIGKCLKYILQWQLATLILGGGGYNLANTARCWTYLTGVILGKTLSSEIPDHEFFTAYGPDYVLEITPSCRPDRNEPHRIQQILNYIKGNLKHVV
Test: Human HDAC enzyme inhibitor Fluor-de-Lys assay, HDAC8
Format: biochemical
Conditions: 1.3 nM enzyme, 200 μM substrate BML-KI178, 3 h pre-incubation, 60 min reaction; read-out: HDAC8_IC50
From the text: Recombinant human HDAC8 (catalog number BML-SE145-0100) and HDAC10 (catalog number BML-SE559-0050) enzymes, HDAC substrates BML-KI104 and BML-KI178, and HDAC developer solutions BML-KI105 and BML-KI176 were purchased from Enzo Life Sciences (Farmingdale, NY). Recombinant human HDAC5 and HDAC11 were purchased from BPS Bioscience (San Diego, CA)(catalog numbers 50045 and 50021). Substrate Boc-Lys(TFA)-AMC was obtained from Bachem (Bupendorf, Switzerland) (catalog number 1-1985). HDAC inhibitor suberoylanilide hydroxamic acid (SAHA) was obtained from Indofine (Hillsborough Township, NJ) and trichostatin A (TSA) was obtained from Sigma-Aldrich (St. Louis, MO). […] HEPES pH 8.0 was obtained from Boston BioProducts (Ashland, MA), Tween-20 from Fisher Scientific (Hampton, NH)(catalog number BP337), TCEP from Calbiochem and 7.5% bovine serum albumin (BSA) from Life Technologies (Carlsbad, CA) (catalog number 15260037). 384-well, black assay plates were obtained from Corning (Corning, NY) (catalog number 3575).
The histone deacetylase activities of HDAC1, HDAC2, HDAC3, HDAC6, and HDAC8 were measured in modified Fluor-de-Lys assays in 384-well format. In this assay, HDAC enzymes are initially incubated with an ε-acetyl (or -trifluoroacetyl)-L-lysine-containing substrate with a C-terminal amide having aminomethylcoumarin as the amine component. HDACs cleave the ε-acetyl group, rendering the resulting product susceptible to AMC cleavage by trypsin. The released AMC is then detected by its fluorescence.
The HDAC 1, 2 assays employed buffer A, which contained 20 mM HEPES, pH 8.0, 1 mM MgCl2, 137 mM NaCl, 2.7 mM KCl, 0.05% BSA. The HDAC3/SMRT assay employed buffer B, consisting of 20 mM HEPES, pH 8.0, 1 mM MgCl2, 50 mM NaCl, 2.7 mM KCl, 0.05% BSA, 0.005% Tween 20, and 10 μM IP4. The HDAC6 assay employed buffer C, consisting of 20 mM HEPES, pH 8.0, 1 mM MgCl2, 137 mM NaCl, 2.7 mM KCl, 0.5 mM TCEP (Calbiochem) and 0.05% BSA. The HDAC8 assay employed buffer D, consisting of 20 mM HEPES, pH 8.0, 1 mM MgCl2, 100 mM NaCl, 20 mM KCl, 0.1% n-octyl-β-D-glucoside (Anatrace, Maumee, OH) and 0.05% BSA. All steps were performed at room temperature (23° C.). The assay was performed by pre-incubating serial dilutions of test compounds with the target HDAC prior to initiation with substrate. Each compound was titrated in a 10-point dose response, using a 1:3 fold dilution scheme, with 0.15 ul of solution added by ECHO555 to the plate, followed by the addition of 20 μl of the appropriate HDAC isoform diluted in appropriate assay buffer. […] Final conditions used for each assay were: 1. HDAC 1, 0.3 nM total enzyme, 20 μM substrate BML-K1104; 2. HDAC 2, 1.5 nM total enzyme, 40 μM substrate BML-K1104; 3. HDAC 3/SMRT, 0.3 nM total enzyme, 20 μM substrate BML-K1104; 4. HDAC 6, 1.3 nM total enzyme, 2.5 μM substrate BML-K1104; 5. HDAC 8, 1.3 nM total enzyme, 200 μM substrate BML-K1178; the final high dose of test compound was 30 μM. For potent compounds, 900 nM was used as the final high dose. The reactions were stopped and developed by addition of 30 ul of HDAC developer solution containing a saturating level of HDAC inhibitor as follows: 1.

Row | SMILES | IC50 [nM]
1 | N[C@@H](COCCCC(=O)c1ccon1)c1ncc(-c2ccccc2F)[nH]1 [Compound 2, (R)-4-(2-amino-2-(5-(2-fluorophenyl)-1H-imidazol-2-yl)ethoxy)-1-(isoxazol-3-yl)butan-1-one] | > 900
2 | CCC(=O)CCCOC[C@H](NC(=O)c1cncs1)c1ncc(-c2cc3ccccc3nc2OC)[nH]1 [Compound 5, N-{(1R)-1-[5-(2-methoxyquinolin-3-yl)-1H-imidazol-2-yl]-2-[(4-oxohexyl)oxy]ethyl}-1,3-thiazole-5-carboxamide] | 2720
3 | CCC(=O)CCCOC[C@H](NC(=O)C12CCN(CC1)CC2)c1ncc(-c2cc3ccccc3nc2OC)[nH]1 [Compound 6, N-{(1R)-1-[5-(2-methoxyquinolin-3-yl)-1H-imidazol-2-yl]-2-[(4-oxohexyl)oxy]ethyl}-1-azabicyclo[2.2.2]octane-4-carboxamide] | > 45000
4 | CCC(=O)CCCOC[C@H](NC(=O)[C@H]1CC12CCN(CC)CC2)c1ncc(-c2cc3ccccc3nc2OC)[nH]1 [Compound 7, (1S)-6-ethyl-N-{(1R)-1-[5-(2-methoxyquinolin-3-yl)-1H-imidazol-2-yl]-2-[(4-oxohexyl)oxy]ethyl}-6-azaspiro[2.5]octane-1-carboxamide] | > 45000
5 | CNC(=O)C(=O)CCCOC[C@H](NC(=O)c1cncs1)c1ncc(-c2cc3ccccc3nc2OC)[nH]1 [Compound 8, N-[(1R)-1-[5-(2-methoxyquinolin-3-yl)-1H-imidazol-2-yl]-2-{[5-(methylamino)-4,5-dioxopentyl]oxy}ethyl]-1,3-thiazole-5-carboxamide] | 3860
6 | CNC(=O)C(=O)CCCOC[C@H](NC(=O)C12CCN(CC1)CC2)c1ncc(-c2cc3ccccc3nc2OC)[nH]1 [Compound 9, N-[(1R)-1-[5-(2-methoxyquinolin-3-yl)-1H-imidazol-2-yl]-2-{[5-(methylamino)-4,5-dioxopentyl]oxy}ethyl]-1-azabicyclo[2.2.2]octane-4-carboxamide] | 3370
7 | COc1nc2ccccc2cc1-c1cnc([C@H](COCCCC(=O)c2ncco2)NC(=O)c2cncs2)[nH]1 [Compound 10, N-{(1R)-1-[5-(2-methoxyquinolin-3-yl)-1H-imidazol-2-yl]-2-[4-(1,3-oxazol-2-yl)-4-oxobutoxy]ethyl}-1,3-thiazole-5-carboxamide] | 1380
8 | COc1nc2ccccc2cc1-c1cnc([C@H](COCCCC(=O)c2ncco2)NC(=O)[C@H]2CC23CCN(C)CC3)[nH]1 [Compound 11, (1S)-N-{(1R)-1-[5-(2-methoxyquinolin-3-yl)-1H-imidazol-2-yl]-2-[4-(1,3-oxazol-2-yl)-4-oxobutoxy]ethyl}-6-methyl-6-azaspiro[2.5]octane-1-carboxamide] | 7780
9 | COc1nc2ccccc2cc1-c1cnc([C@H](COCCCC(=O)c2ncco2)NC(=O)C23CCN(CC2)CC3)[nH]1 [Compound 12, N-{(1R)-1-[5-(2-methoxyquinolin-3-yl)-1H-imidazol-2-yl]-2-[4-(1,3-oxazol-2-yl)-4-oxobutoxy]ethyl}-1-azabicyclo[2.2.2]octane-4-carboxamide] | 5550
10 | COc1nc2ccccc2cc1-c1cnc([C@H](COCCCC(=O)c2ncco2)NC(=O)CN(C)C)[nH]1 [Compound 13, N-{(1R)-1-[5-(2-methoxyquinolin-3-yl)-1H-imidazol-2-yl]-2-[4-(1,3-oxazol-2-yl)-4-oxobutoxy]ethyl}-N~2~,N~2~- dimethylglycinamide] | 17000
11 | COc1nc2ccccc2cc1-c1cnc([C@H](COCCCC(=O)c2ccon2)NC(=O)CN(C)C)[nH]1 [Compound 14, N-{(1R)-2-(4-isoxazol-3-yl-4-oxobutoxy)-1-[5-(2-methoxyquinolin-3-yl)-1H-imidazol-2-yl]ethyl}-N~2~,N~2~- dimethylglycinamide] | 1760
12 | CN1CC(C(=O)N[C@@H](COCCCC(=O)c2ccon2)c2ncc(-c3ccccc3F)[nH]2)C1 [Compound 15, N-[(1R)-1-[5-(2-fluorophenyl)-1H-imidazol-2-yl]-2-(4-isoxazol-3-yl-4-oxobutoxy)ethyl]-1-methylazetidine-3-carboxamide] | > 900
13 | CN1CC(C(=O)N[C@@H](COCCCC(=O)c2ccon2)c2[nH]c(-c3ccc(F)cc3)nc2Cl)C1 [Compound 16, N-[(1R)-1-[4-chloro-2-(4-fluorophenyl)-1H-imidazol-5-yl]-2-(4-isoxazol-3-yl-4-oxobutoxy)ethyl]-1-methylazetidine-3-carboxamide] | > 900
14 | CN(C)CC(=O)N[C@@H](COCCCC(=O)c1ccon1)c1[nH]c(-c2ccc(F)cc2)nc1Cl [Compound 17, N-[(1R)-1-[4-chloro-2-(4-fluorophenyl)-1H-imidazol-5-yl]-2-(4-isoxazol-3-yl-4-oxobutoxy)ethyl]-N~2~,N~2~- dimethylglycinamide] | > 900
15 | CN1CCC2(CC1)C[C@@H]2C(=O)N[C@@H](COCCCC(=O)c1ccon1)c1[nH]c(-c2ccc(F)cc2)nc1Cl [Compound 18, (1S)-N-[(1R)-1-[4-chloro-2-(4-fluorophenyl)-1H-imidazol-5-yl]-2-(4-isoxazol-3-yl-4-oxobutoxy)ethyl]-6-methyl-6-azaspiro[2.5]octane-1-carboxamide] | > 900
16 | COc1cc2nc(C)ccc2cc1-c1cnc([C@H](COCCCC(=O)c2cc(C)on2)NC(=O)C2CN(C)C2)[nH]1 [Compound 19, N-{(1R)-1-[5-(7-methoxy-2-methylquinolin-6-yl)-1H-imidazol-2-yl]-2-[4-(5-methylisoxazol-3-yl)-4-oxobutoxy]ethyl}-1-methylazetidine-3-carboxamide] | > 900
17 | COc1cc2nc(C)ccc2cc1-c1cnc([C@H](COCCCC(=O)c2cc(C)on2)NC(=O)[C@H]2CC23CCN(C)CC3)[nH]1 [Compound 20, (1S)-N-{(1R)-1-[5-(7-methoxy-2-methylquinolin-6-yl)-1H-imidazol-2-yl]-2-[4-(5-methylisoxazol-3-yl)-4-oxobutoxy]ethyl}-6-methyl-6-azaspiro[2.5]octane-1-carboxamide] | > 900
18 | Cc1ccc2cc(-c3cnc([C@H](CSCCCC(=O)c4ncco4)NC(=O)[C@H]4CC45CCN(C)CC5)[nH]3)ccc2n1 [Compound 21, (1S)-6-methyl-N-[(1R)-1-[5-(2-methylquinolin-6-yl)-1H-imidazol-2-yl]-2-{[4-(1,3-oxazol-2-yl)-4-oxobutyl]sulfanyl}ethyl]-6-azaspiro[2.5]octane-1-carboxamide] | 1050
